According to patent publication US20050065212A1, “Use of at least one 10-hydroxy-2-decenoic acid derivative in compositions for treating the cuteous signs of aging” (priority 2001, published 2005):

Key:
[1] = tested on: interstitial collagenase (type-1 metalloprotease, MMP-1) production by A2058 cells; experiment: Production of interstitial collagenase in A2058 cell culture (ELISA, Biotrack human MMP1); format: cell-based
Experimental: (§1) The effect of 2-dimethylaminoethyl 10-hydroxy-2-decenoate on the production of interstitial collagenase was evaluated in a culture model of A2058 cells (derived from human melanomas: Templeton N. S. et al. 1990; Cancer Res., 50:5431-5431) and in a culture model of HT1080 cells derived from a human fibrosarcoma (American type Culture Collection: reference CCL 121).
(§2) The A2058 cells constitutively express and secrete type-1 metalloprotease. The HT1080 cells express little type-1 metalloprotease in the basal state, but this expression is increased in the presence of TPA.
(§3) The cells are incubated in an MEM medium without phenol red, containing amino acids at a concentration of 2 mM, sodium pyruvate at a concentration of 1 mM and calf serum containing 10% […]. They are then cultured at a density of 20 000 cells per well in the 24 wells of a multiwell plate.
(§4) Twenty-four hours after culturing, the cells are placed in contact with 2-dimethylaminoethyl 10-hydroxy-2-decenoate at a concentration of 25 μg/ml. The production of the interstitial collagenase is evaluated 96 hours later in the culture medium. This is performed using an ELISA kit (Biotrack human MMP1; Amersham).
(§5) The results are expressed as a percentage of reduction of the production of interstitial collagenase relative to the control, i.e. relative to culturing performed under the same conditions in the absence of derivative.

[2] = tested on: interstitial collagenase (type-1 metalloprotease, MMP-1) production by HT1080 cells; experiment: Production of interstitial collagenase in HT1080 cell culture (ELISA, Biotrack human MMP1); format: cell-based; settings: for percentage of reduction of the production of interstitial collagenase relative to the control: compound 25 μg/ml, culture medium 96 hours after contact
Experimental: as §1, §2, §3, §4, §5

Structure (SMILES): CN(C)CCOC(=O)/C=C/CCCCCCCO [2-dimethylaminoethyl 10-hydroxy-2-decenoate]
- percentage of reduction of the production of interstitial collagenase relative to the control ([1]; A2058 cells, compound 25 μg/ml, culture medium 96 hours after contact): 70%
- effect on production of interstitial collagenase (in words) ([1]; A 2058 cells, dose of 25 μg/ml): reduces the production of interstitial collagenase
- percentage of reduction of the production of interstitial collagenase relative to the control ([2]; HT1080 with TPA): 50%
- percentage of reduction of the production of interstitial collagenase relative to the control ([2]; HT1080 without TPA): 55%
- effect on production of interstitial collagenase (in words) ([2]; HT61080 cells as printed, dose of 25 μg/ml): reduces the production of interstitial collagenase
